According to patent US6060462A, “Electrophilic peptide analogs as inhibitors of trypsin-like enzymes” (DuPont Pharmaceuticals Company, priority 1997, dated 2000):
Where a name gives a salt, the structure may show the parent alone.

What was measured:
Assay type in all cases: biochemical
human thrombin = human thrombin (Homo sapiens, UniProt P00734); assay: Inhibition of thrombin hydrolysis of chromogenic substrate S2238 (Ki); set-up: 0.2-0.5 nM human thrombin or human factor Xa; purchased Enzyme Research Laboratories, South Bend, Ind; details: purified human thrombin, 0.10 M sodium phosphate buffer, pH 7.5, read-out: Ki values for inhibition of Serine Proteases: Trombin
Protocol: (§1) The effectiveness of compounds of the present invention as inhibitors of blood coagulation proteases was determined using purified human proteases and synthetic substrates following procedures similar to those described in Kettner et al. (1990).
(§2) For these assays, the rate of enzymatic (thrombin, Factor Xa, and Factor VIIa) hydrolysis of chromogenic substrates (S2238 (H-D-Phe-Pip-Arg-pNA), S2222, and S2288, respectively; Kabi Pharmacia, Franklin, Ohio) was measured both in the absence and presence of compounds of the present invention. […] A decrease in the rate of absorbance change at 405 nm in the presence of inhibitor is indicative of enzyme inhibition. The results of this assay are expressed as inhibitory constant, Ki.
(§3) Thrombin and Xa determinations were made in 0.10 M sodium phosphate buffer, pH 7.5, containing 0.20 M NaCl, and 0.5% PEG 8000. VIIa determinations were made in 0.05 M tris buffer, pH 7.6, containing 0.10 M NaCl, 4 mM CaCl2, and 0.1% bovine serum albumin.
(§4) Reactions were allowed to go for 30 minutes and the velocities (rate of absorbance change vs time) were measured in the time frame of 25-30 minutes. The following relationship was used to calculate Ki values. [formula] where: vo is the velocity of the control in the absence of inhibitor;
(§5) vs is the velocity in the presence of inhibitor;
(§6) I is the concentration of inhibitor;
(§7) Ki is the dissociation constant of the enzyme: inhibitor complex;
(§8) S is the concentration of substrate;
(§9) Km is the Michaelis constant.

human factor Xa = target: T1, human factor Xa (Homo sapiens, UniProt P00742); assay: Inhibition of Factor Xa hydrolysis of chromogenic substrate S2222 (Ki); details: purified human factor Xa, 0.10 M sodium phosphate buffer; for Ki: pH 7.5, read-out: Ki values for inhibition of Serine Proteases: Factor Xa
T1 construct: 0.2-0.5 nM human thrombin or human factor Xa; purchased Enzyme Research Laboratories, South Bend, Ind
T1 sequence (P00742 235-488 limits assumed): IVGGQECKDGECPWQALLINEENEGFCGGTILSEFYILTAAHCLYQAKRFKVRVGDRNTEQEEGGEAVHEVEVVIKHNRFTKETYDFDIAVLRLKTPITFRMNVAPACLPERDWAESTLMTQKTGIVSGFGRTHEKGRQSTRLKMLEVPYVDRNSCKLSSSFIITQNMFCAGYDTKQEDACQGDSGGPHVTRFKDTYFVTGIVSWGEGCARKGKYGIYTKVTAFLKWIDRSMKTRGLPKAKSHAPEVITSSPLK
T1 sequence (P00742 41-179 partner limits assumed): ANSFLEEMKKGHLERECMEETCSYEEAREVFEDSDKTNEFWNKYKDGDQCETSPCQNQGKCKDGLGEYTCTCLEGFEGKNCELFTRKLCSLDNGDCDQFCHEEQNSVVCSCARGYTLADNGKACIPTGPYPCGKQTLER
Protocol: as §1, §2, §3, §4, §5, §6, §7, §8, §9

human factor VIIa = target: T2, human factor VIIa (Homo sapiens, UniProt P08709); assay: Inhibition of Factor VIIa hydrolysis of chromogenic substrate S2288 (Ki); details: purified human factor VIIa, 0.05 M tris buffer; for Ki values for inhibition of Serine Proteases: Factor VIIa: pH 7.6; for Ki: pH 7.6, read-out: Ki values for inhibition of Serine Proteases: Factor VIIa
T2 construct: 50 nM human factor VIIa (BiosPacific, Emeryville, Calif.); purchased BiosPacific, Emeryville, Calif
T2 sequence (P08709 213-466 limits assumed): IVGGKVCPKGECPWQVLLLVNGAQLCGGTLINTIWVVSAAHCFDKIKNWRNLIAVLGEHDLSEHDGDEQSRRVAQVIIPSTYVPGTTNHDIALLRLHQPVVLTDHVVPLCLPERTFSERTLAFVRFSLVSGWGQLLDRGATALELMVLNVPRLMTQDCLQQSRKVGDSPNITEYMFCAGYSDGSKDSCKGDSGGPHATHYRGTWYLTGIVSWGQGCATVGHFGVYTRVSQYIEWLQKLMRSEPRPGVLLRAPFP
T2 sequence (P08709 61-212 partner limits assumed): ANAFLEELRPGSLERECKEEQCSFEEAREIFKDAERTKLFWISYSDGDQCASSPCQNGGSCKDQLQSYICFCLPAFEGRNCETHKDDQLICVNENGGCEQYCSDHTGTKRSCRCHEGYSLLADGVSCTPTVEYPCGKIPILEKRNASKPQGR
Protocol: as §1, §2, §3, §4, §5, §6, §7, §8, §9

Molecule | Ki (human thrombin) | Ki (human factor Xa) | Ki values for inhibition of Serine Proteases: Factor VIIa (human factor VIIa) | Ki (human factor VIIa) | Ki values for inhibition of Serine Proteases: Factor Xa (human factor Xa; pH 7.5)
2-(2-(Trifluoromethyl)-Benzyl)-Benzoyl-Sar-Lys--C(=O)--NHNH2 2 HCl [Example 71.4.2] | < 50000 nM |  |  |  | 
2-(Benzyl)-Benzoyl-Sar-Lys--C(=O)--NHNH2 2 HCl [Example 70.4.2] | < 50000 nM | < 50000 nM | inactive |  | 
CC1(C)C2CC3OB(C(CCCN)NC(=O)CN(CCc4ccccc4)C(=O)CCc4ccccc4)OC3(C)C1C2.Cl (stereo not drawn) [Example 49.1.1, Hydrocinnamoyl-[N-(Phenethyl)-Gly]-boroOrn-C10H16HCl] | < 500 nM | < 50000 nM | inactive |  | 
CC1(C)C2CC3OB(C(CCCCN)NC(=O)CN(CCc4cccc(C(F)(F)F)c4)C(=O)CCc4ccccc4)OC3(C)C1C2 (stereo not drawn) [Example 51.1.1, Hydrocinnamoyl-[N-(3-(Trifluoromethyl)-Phenethyl)-Gly]-boroLys--C10H16 HCl] | < 500 nM | < 500 nM |  | < 50000 nM | 
Cc1cccc(CCN(CC(=O)NC(CCCCN)B2OC3CC4CC(C4(C)C)C3(C)O2)C(=O)CCc2ccccc2)c1 (stereo not drawn) [Example 51.1.2, Hydrocinnamoyl-[N-(3-(Methyl)-Phenethyl)-Gly]-boroLys-C10H16 HCl] | < 500 nM |  |  |  | 
NCCCCC(NC(=O)CN(CCc1cccc(C(F)(F)F)c1)C(=O)CCc1ccccc1)B(O)O (stereo not drawn) [Example 52.1.1, Hydrocinnamoyl-[N-(3-(Trifluoromethyl)-Phenethyl)-Gly]-boroLys--OH HCl] | < 500 nM | < 500 nM |  | < 50000 nM | 
NCCCCC(NC(=O)CN(C(=O)CCc1ccccc1)C1CCCCC1)B(O)O (stereo not drawn) [Example 53.4.3, Hydrocinnamoyl-[N-(Cyclohexyl)-Gly]-boroLys--OH HCl] | < 500 nM | < 50000 nM |  | < 500 nM | 
CC(C)(CN(CC(=O)NC(CCCCN)B1OC2CC3CC(C3(C)C)C2(C)O1)C(=O)CCc1ccccc1)c1ccccc1 (stereo not drawn) [Example 54.1.1, Hydrocinnamoyl-[N-(2,2-(Dimethyl)-Phenethyl)-Gly]-boroLys-C10H16 HCl] | < 500 nM |  |  |  | 
CCC(CC)(CN(CC(=O)NC(CCCCN)B1OC2CC3CC(C3(C)C)C2(C)O1)C(=O)CCc1ccccc1)c1ccccc1 (stereo not drawn) [Example 54.1.3, Hydrocinnamoyl-[N-(2,2-(Diethyl)-Phenethyl)-Gly]-boroLys-C10H16 HCl] | < 500 nM | < 50000 nM |  | < 500 nM | 
CC1(C)C2CC3OB(C(CCCCN)NC(=O)CN(C(=O)CCC(=O)O)C(=O)CCc4ccccc4)OC3(C)C1C2 (stereo not drawn) [Example 54.2.3, Hydrocinnamoyl-[N-(Succinyl)-Gly]-boroLys-C10H16] | < 500 nM | < 50000 nM |  | < 50000 nM | 
COC(=O)CCC(=O)N(CC(=O)NC(CCCCN)B1OC2CC3CC(C3(C)C)C2(C)O1)C(=O)CCc1ccccc1 (stereo not drawn) [Example 54.3.1, Hydrocinnamoyl-[N-(Methyl Succinyl)-Gly]-boroLys-C10H16 HCl] | < 500 nM | < 50000 nM |  | < 50000 nM | 
CC1(C)C2CC3OB(C(CCCCN)NC(=O)CN(CCc4ccccc4C4CCCC4)C(=O)CCc4ccccc4)OC3(C)C1C2 (stereo not drawn) [Example 54.3.2, Hydrocinnamoyl-[N-(2-(Cyclopentyl)-Phenethyl)-Gly]-boroLys-C10H16 HCl] | < 500 nM | < 50000 nM |  | < 500 nM | 
CC(C)(CN(CC(=O)NC(CCCCN)B1OC2CC3CC(C3(C)C)C2(C)O1)C(=O)CCc1ccccc1)c1ccccc1 (stereo not drawn) [Example 54.3.3, Hydrocinnamoyl-[N-(2,2-(Dimethyl)-Phenethyl)-Gly]-boroLys-C10H16 HCl] |  | < 50000 nM |  | < 500 nM | 
Cc1cc(C)cc(CCN(CC(=O)NC(CCCCN)B2OC3CC4CC(C4(C)C)C3(C)O2)C(=O)CCc2ccccc2)c1 (stereo not drawn) [Example 54.4.1, Hydrocinnamoyl-{N-[2-(3,5-dimethylphenyl)-ethyl]-Gly}-boroLys-C10H16 HCl] |  | < 50000 nM |  | < 50000 nM | 
CC(C)(CN(CC(=O)NC(CCCNC(=N)N)B(O)O)C(=O)CCc1ccccc1)c1ccccc1 (stereo not drawn) [Example 55.1.1, Hydrocinnamoyl-[N-(2,2-(Dimethyl)-Phenethyl)-Gly]-boroArg--OH HCl] | < 500 nM | < 500 nM |  | < 500 nM | 
CC(C)(CN(CC(=O)NC(CCCNC(=N)N)B1OC2CC3CC(C3(C)C)C2(C)O1)C(=O)CCc1ccccc1)c1ccccc1 (stereo not drawn) [Example 56.1.1, Hydrocinnamoyl-[N-(2,2-(Dimethyl)-Phenethyl)-Gly]-boroArg-C10H16 HCl] | < 500 nM | < 500 nM |  | < 500 nM | 

Molecule | Ki (human thrombin) | Ki (human factor Xa) | Ki values for inhibition of Serine Proteases: Factor VIIa (human factor VIIa) | Ki (human factor VIIa) | Ki values for inhibition of Serine Proteases: Factor Xa (human factor Xa; pH 7.5)
CC(C)(CN(CC(=O)NC(CCCN)B1OC2CC3CC(C3(C)C)C2(C)O1)C(=O)CCc1ccccc1)c1ccccc1 (stereo not drawn) [Example 60.1.1, Hydrocinnamoyl-[N-(2,2-(Dimethyl)-Phenethyl)-Gly]-boroOrn-C10H16 HCl] | < 500 nM | < 50000 nM |  |  | 
CC1(C)C2CC3OB(C(CCCN)NC(=O)CN(C(=O)CCc4ccccc4)C4CC4)OC3(C)C1C2 (stereo not drawn) [Example 60.4.2, Hydrocinnamoyl-[N-(Cyclopropyl)-Gly]-boroOrn-C10H16 HCl] | < 500 nM |  |  |  | 
CC(C)(CC(=O)O)CC(=O)N(CCc1ccccc1)CC(=O)NC(CCCCN)B(O)O (stereo not drawn) [Example 66.1.2, Glutaryl(3,3-Dimethyl)-[N-(Phenethyl)-Gly]-boroLys--OH] | < 500 nM |  |  | < 50000 nM | 
COC(=O)CC(C)(C)CC(=O)N(CCc1ccccc1)CC(=O)NC(CCCCN)B(O)O (stereo not drawn) [Example 66.1.3, Methyl Glutaryl(3,3-Dimethyl)-[N-(Phenethyl)-Gly]-boroLys--OH HCl] | < 500 nM |  |  | < 50000 nM | 
CC(c1ccccc1)N(CC(=O)NC(CCCCN)B1OC2CC3CC(C3(C)C)C2(C)O1)C(=O)CNS(C)(=O)=O (stereo not drawn) [Example 67.3.2, Methanesylfonyl-Gly-[N-(N-(Methyl)-Benzyl)-Gly]-boroLys-C10H16 HCl] | < 500 nM |  |  |  | 
CN(CC(=O)N(CCc1ccccc1)CC(=O)NC(CCCCN)B(O)O)S(C)(=O)=O (stereo not drawn) [Example 68.4.2] | < 500 nM |  |  |  | 
CC(C)(C)OC(=O)NC(CCC(=O)O)C(=O)N(CCc1ccccc1)CC(=O)NC(CCCCN)B1OC2CC3CC(C3(C)C)C2(C)O1 (stereo not drawn) [Example 69.2.1, Boc-Glu-[N-(Phenethyl)-Gly]-boroLys-C10H16] | < 500 nM |  |  | < 500 nM | 
CC(C)(C)OC(=O)NC(CC(=O)O)C(=O)N(CCc1ccccc1)CC(=O)NC(CCCCN)B1OC2CC3CC(C3(C)C)C2(C)O1 (stereo not drawn) [Example 69.2.2, Boc-Asp-[N-(Phenethyl)-Gly]-boroLys-C10H16] | < 500 nM |  |  | < 500 nM | 
COC(=O)CCC(NC(=O)OC(C)(C)C)C(=O)N(CCc1ccccc1)CC(=O)NC(CCCCN)B1OC2CC3CC(C3(C)C)C2(C)O1 (stereo not drawn) [Example 69.2.3, Boc-Glu(OCH3)-[N-(Phenethyl)-Gly]-boroLys--C10H16 HCl] | < 500 nM |  |  | < 50000 nM | 
CN(CC(=O)N(CCc1ccccc1)CC(=O)NC(CCCCN)B1OC2CC3CC(C3(C)C)C2(C)O1)S(C)(=O)=O (stereo not drawn) [Example 69.4.2, Methanesulfonyl-Sar-[N-(Phenethyl)-Gly]-boroLys-C10H16 HCl] | < 500 nM |  |  |  | 
CN(CC(=O)NC(CCCNC(=N)N)B(O)O)C(=O)c1ccccc1Sc1ccccc1C#N (stereo not drawn) [Example 75.3.1, (2-(2-Cyano)-Thiophenyl)-Benzoyl-Sar-boroArg--OH HCl] |  |  |  | < 500 nM | 
Hydrocinnamoyl-Sar-Lys--C(=O)--CH3 HCl [Example 61.2.3] |  |  | Inactive |  | Inactive
Hydrocinnamoyl-[N-(Cyclopropyl)-Gly]-boroLys(CH=NH)--OH HCl [Example 76.1.1] | < 500 nM |  |  |  | 
Hydrocinnamoyl-[N-(Cyclopropyl)-Gly]-boroLys(CH=NH)-C10H16 HCl [Example 77.1.1] | < 500 nM |  |  |  | 
Hydrocinnamoyl-[N-(Cyclopropyl)-Gly]-boroOrn(CH=NH)-C10H16 HCl [Example 58.4.2] | < 50000 nM |  |  |  | 
Hydrocinnamoyl-[N-(N(CH3)2)-Gly]-boroLys--C10H16 HCl [Example 50.1.3] | < 500 nM |  |  |  | 
